# Patent US8063065B2, “Azaindazole compounds as CCR1 receptor antagonists” (Boehringer Ingelheim International GmbH, priority 2008, dated 2011)
# Target: T1, CCR1 (Homo sapiens, UniProt P32246)
# T1 sequence (P32246 1-355): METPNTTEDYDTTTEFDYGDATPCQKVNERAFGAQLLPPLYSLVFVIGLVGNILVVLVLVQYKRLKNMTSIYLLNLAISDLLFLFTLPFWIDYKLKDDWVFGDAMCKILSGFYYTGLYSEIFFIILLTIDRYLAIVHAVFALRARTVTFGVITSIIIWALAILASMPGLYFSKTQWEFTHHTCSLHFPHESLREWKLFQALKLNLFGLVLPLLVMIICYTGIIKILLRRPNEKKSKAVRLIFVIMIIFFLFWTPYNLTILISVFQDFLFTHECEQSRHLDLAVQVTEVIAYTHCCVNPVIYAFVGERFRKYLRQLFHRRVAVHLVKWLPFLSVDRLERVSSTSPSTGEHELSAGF
# Experiment: Method A: calcium flux in CCR1 transfected cells (Fluo-4 NW, FLIPR TETRA), block of the CCR1/MIP-1α interaction
# Type: cell-based
# Details: Method A: Fluo-4 NW, MIP-1 alpha at EC80
# Outline: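 Non-adherent cells stably expressing recombinant CCR1 and G-alpha-16, Fluo-4 NW-loaded 1 h at room temperature, preincubated 1 h with compound (top 3,000 nM, 4-fold, 10 doses; 1% DMSO) in HBSS/20 mM HEPES pH 7.4. MIP-1 alpha added at EC80; intracellular calcium flux recorded on FLIPR TETRA.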
row,Structure (SMILES),IC50 [nM]
1,"C[C@H](NC(=O)c1cncc2c1cnn2-c1ccc(F)cc1)c1cncc(S(N)(=O)=O)c1 [1-(4-Fluorophenyl)-1H-pyrazolo[3,4-c]pyridine-4-carboxylic acid [(S)-1-(5-sulfamoyl-pyridin-3-yl)-ethyl]-amide]",2
2,"C[C@H](NC(=O)c1cncc2c1cnn2-c1ccc(F)cc1)c1ccc(S(C)(=O)=O)nc1 [1-(4-Fluorophenyl)-1H-pyrazolo[3,4-c]pyridine-4-carboxylic acid [(S)-1-(6-methanesulfonyl-pyridin-3-yl)-ethyl]-amide]",9
3,"CN(C)S(=O)(=O)c1ccc(CNC(=O)c2cncc3c2cnn3-c2ccc(F)cc2)cn1 [1-(4-Fluorophenyl)-1H-pyrazolo[3,4-c]pyridine-4-carboxylic acid (6-dimethylsulfamoyl-pyridin-3-ylmethyl)-amide]",1
4,"C=CC[C@@H](NC(=O)c1cncc2c1cnn2-c1ccc(F)cc1)c1ccnc(S(C)(=O)=O)c1 [1-(4-Fluorophenyl)-1H-pyrazolo[3,4-c]pyridine-4-carboxylic acid [(R)-1-(2-methanesulfonyl-pyridin-4-yl)-but-3-enyl]-amide]",1
5,"O=C(NCc1ccc(S(=O)(=O)N2CCC(O)C2)cc1)c1cncc2c1cnn2-c1ccc(F)cc1 (stereo not drawn) [1-(4-Fluorophenyl)-1H-pyrazolo[3,4-c]pyridine-4-carboxylic acid 4-(3-hydroxy-pyrrolidine-1-sulfonyl)-benzylamide]",0.9
6,"C[C@H](CO)NS(=O)(=O)c1ccc(CNC(=O)c2cncc3c2cnn3-c2ccc(F)cc2)cc1 [1-(4-Fluorophenyl)-1H-pyrazolo[3,4-c]pyridine-4-carboxylic acid 4-((R)-2-hydroxy-1-methyl-ethylsulfamoyl)-benzylamide]",2
7,"CC[C@H](NC(=O)c1cncc2c1cnn2-c1ccc(Cl)cc1)c1cncc(S(C)(=O)=O)c1 [1-(4-Chlorophenyl)-1H-pyrazolo[3,4-c]pyridine-4-carboxylic acid [(S)-1-(5-methanesulfonyl-pyridin-3-yl)-propyl]-amide]",0.4
8,"CC(O)CNS(=O)(=O)c1ccc(CNC(=O)c2cncc3c2cnn3-c2ccc(F)cc2)cc1 (stereo not drawn) [1-(4-Fluorophenyl)-1H-pyrazolo[3,4-c]pyridine-4-carboxylic acid 4-(2-hydroxy-propylsulfamoyl)-benzylamide]",2
9,"NS(=O)(=O)c1cc(CNC(=O)c2cncc3c2cnn3-c2ccc(F)cc2)ccn1 [1-(4-Fluorophenyl)-1H-pyrazolo[3,4-c]pyridine-4-carboxylic acid (2-sulfamoyl-pyridin-4-ylmethyl)-amide]",13
10,"COCCN(c1ccc(CNC(=O)c2cncc3c2cnn3-c2ccc(F)cc2)cn1)S(C)(=O)=O [1-(4-Fluorophenyl)-1H-pyrazolo[3,4-c]pyridine-4-carboxylic acid {6-[methanesulfonyl-(2-methoxy-ethyl)-amino]-pyridin-3-ylmethyl}-amide]",1
11,"C=CC[C@H](NC(=O)c1cncc2c1cnn2-c1ccc(F)cc1)c1ccnc(Br)c1 [1-(4-Fluorophenyl)-1H-pyrazolo[3,4-c]pyridine-4-carboxylic acid [(S)-1-(2-bromopyridin-4-yl)-but-3-enyl]-amide]",0.3
12,"O=C(NCc1ccc(N2CCCCS2(=O)=O)nc1)c1cncc2c1cnn2-c1ccc(F)cc1 [1-(4-Fluorophenyl)-1H-pyrazolo[3,4-c]pyridine-4-carboxylic acid [6-(1,1-dioxo-1λ6-perhydro-1,2-thiazin-2-yl)-pyridin-3-ylmethyl]-amide]",9
13,"CNS(=O)(=O)c1cc(CNC(=O)c2cncc3c2cnn3-c2ccc(F)cc2)ccc1OC [1-(4-Fluorophenyl)-1H-pyrazolo[3,4-c]pyridine-4-carboxylic acid 4-methoxy-3-methylsulfamoyl-benzylamide]",12
14,"CS(=O)(=O)Nc1ccc(CNC(=O)c2cncc3c2cnn3-c2ccc(F)cc2)cn1 [1-(4-Fluorophenyl)-1H-pyrazolo[3,4-c]pyridine-4-carboxylic acid (6-methanesulfonylamino-pyridin-3-ylmethyl)-amide]",25
15,"CN1CCC(N(C)S(=O)(=O)Cc2ccc(CNC(=O)c3cncc4c3cnn4-c3ccc(F)cc3)cc2)CC1 [1-(4-Fluorophenyl)-1H-pyrazolo[3,4-c]pyridine-4-carboxylic acid 4-{[methyl-(1-methyl-piperidin-4-yl)-sulfamoyl]-methyl}-benzylamide]",33
16,"CCCC(NC(=O)c1cncc2c1cnn2-c1ccc(F)cc1)c1cncc(S(N)(=O)=O)c1 (stereo not drawn) [1-(4-Fluorophenyl)-1H-pyrazolo[3,4-c]pyridine-4-carboxylic acid [1-(5-sulfamoyl-pyridin-3-yl)-butyl]-amide]",0.4

row,Structure (SMILES),IC50 [nM]
1,"CNS(=O)(=O)c1ccc(CNC(=O)c2cncc3c2cnn3-c2ccc(F)cc2)cc1OC [1-(4-Fluorophenyl)-1H-pyrazolo[3,4-c]pyridine-4-carboxylic acid 3-methoxy-4-methylsulfamoyl-benzylamide]",3
2,"CS(=O)(=O)c1ccc(CNC(=O)c2cncc3c2cnn3-c2ccc(Cl)cc2)cn1 [1-(4-Chlorophenyl)-1H-pyrazolo[3,4-c]pyridine-4-carboxylic acid (6-methanesulfonyl-pyridin-3-ylmethyl)-amide]",34
3,"O=C(NCc1ccc(S(=O)(=O)N2CCOCC2)nc1)c1cncc2c1cnn2-c1ccc(F)cc1 [1-(4-Fluorophenyl)-1H-pyrazolo[3,4-c]pyridine-4-carboxylic acid [6-(morpholine-4-sulfonyl)-pyridin-3-ylmethyl]-amide]",18
4,"CNS(=O)(=O)c1ccc(CNC(=O)c2cncc3c2cnn3-c2ccc(F)cc2)cc1F [1-(4-Fluorophenyl)-1H-pyrazolo[3,4-c]pyridine-4-carboxylic acid 3-fluoro-4-methylsulfamoyl-benzylamide]",1
5,"CC(NC(=O)c1cncc2c1cnn2-c1ccc(F)cc1)c1ccnc(Br)c1 (stereo not drawn) [1-(4-Fluorophenyl)-1H-pyrazolo[3,4-c]pyridine-4-carboxylic acid [1-(2-bromopyridin-4-yl)-ethyl]-amide]",1
6,"O=C(NCc1ccc(S(=O)(=O)NC2CCOCC2)nc1)c1cncc2c1cnn2-c1ccc(F)cc1 [1-(4-Fluorophenyl)-1H-pyrazolo[3,4-c]pyridine-4-carboxylic acid [6-(tetrahydropyran-4-ylsulfamoyl)-pyridin-3-ylmethyl]-amide]",17
7,"CC(C)(CO)NS(=O)(=O)c1ccc(CNC(=O)c2cncc3c2cnn3-c2ccc(F)cc2)cc1 [1-(4-Fluorophenyl)-1H-pyrazolo[3,4-c]pyridine-4-carboxylic acid 4-(2-hydroxy-1,1-dimethyl-ethylsulfamoyl)-benzylamide]",0.9
8,"CC(CO)NS(=O)(=O)c1ccc(CNC(=O)c2cncc3c2cnn3-c2ccc(F)cc2)cc1 (stereo not drawn) [1-(4-Fluorophenyl)-1H-pyrazolo[3,4-c]pyridine-4-carboxylic acid 4-(2-hydroxy-1-methyl-ethylsulfamoyl)-benzylamide]",2
9,"CN(C)S(=O)(=O)Nc1ccc(CNC(=O)c2cncc3c2cnn3-c2ccc(F)cc2)cn1 [1-(4-Fluorophenyl)-1H-pyrazolo[3,4-c]pyridine-4-carboxylic acid [6-(dimethylamino-sulfonylamino)-pyridin-3-ylmethyl]-amide]",24
10,"CS(=O)(=O)c1cccc(CNC(=O)c2cncc3c2cnn3-c2ccc(F)cc2)n1 [1-(4-Fluorophenyl)-1H-pyrazolo[3,4-c]pyridine-4-carboxylic acid (6-methanesulfonyl-pyridin-2-ylmethyl)-amide]",39
11,"COc1cc(CNC(=O)c2cncc3c2cnn3-c2ccc(F)cc2)ccc1S(C)(=O)=O [1-(4-Fluorophenyl)-1H-pyrazolo[3,4-c]pyridine-4-carboxylic acid 4-methanesulfonyl-3-methoxy-benzylamide]",4
12,"CC[C@H](NC(=O)c1cncc2c1cnn2-c1ccc(Cl)cc1)c1cncc(Br)c1 [1-(4-Chlorophenyl)-1H-pyrazolo[3,4-c]pyridine-4-carboxylic acid [(S)-1-(5-bromopyridin-3-yl)-propyl]-amide]",0.6
13,"CCCC(NC(=O)c1cncc2c1cnn2-c1ccc(F)cc1)c1cncc(S(=O)(=O)NC)c1 (stereo not drawn) [1-(4-Fluorophenyl)-1H-pyrazolo[3,4-c]pyridine-4-carboxylic acid [1-(5-methylsulfamoyl-pyridin-3-yl)-butyl]-amide]",0.5
14,"CCC(NC(=O)c1cncc2c1cnn2-c1ccc(F)cc1)c1ccnc(Br)c1 (stereo not drawn) [1-(4-Fluorophenyl)-1H-pyrazolo[3,4-c]pyridine-4-carboxylic acid [1-(2-bromopyridin-4-yl)-propyl]-amide]",0.4
15,"CN(C)C1CCN(S(=O)(=O)c2ccc(CNC(=O)c3cncc4c3cnn4-c3ccc(F)cc3)cc2)CC1 [1-(4-Fluorophenyl)-1H-pyrazolo[3,4-c]pyridine-4-carboxylic acid 4-(4-dimethylamino-piperidine-1-sulfonyl)-benzylamide]",3

# Target: T1, CCR1
# Experiment: Method B: calcium flux in CCR1 transfected cells (Calcium 4 dye, […] FDSS6000), block of the CCR1/MIP-1α interaction
# Type: cell-based
# Details: Method B: Calcium 4 dye, MIP-1alpha at EC80
# Outline: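 Non-adherent cells stably expressing CCR1 and G-alpha-16 were loaded with Calcium 4 dye plus probenecid for 1 h at room temperature. Compounds (top 3,000 nM, 4-fold, 10 doses, 1% DMSO) in HBSS/20 mM HEPES pH 7.4 were incubated 30 min at 37 C, then 30 min at room temperature. MIP-1α at EC80 was added and calcium flux read on FDSS6000.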
row,Structure (SMILES),IC50 [nM]
1,"C[C@H](NC(=O)c1cncc2c1cnn2-c1ccc(F)cc1)c1cncc(S(N)(=O)=O)c1 [1-(4-Fluorophenyl)-1H-pyrazolo[3,4-c]pyridine-4-carboxylic acid [(S)-1-(5-sulfamoyl-pyridin-3-yl)-ethyl]-amide]",0.9
2,"C[C@H](NC(=O)c1cncc2c1cnn2-c1ccc(F)cc1)c1ccc(S(C)(=O)=O)nc1 [1-(4-Fluorophenyl)-1H-pyrazolo[3,4-c]pyridine-4-carboxylic acid [(S)-1-(6-methanesulfonyl-pyridin-3-yl)-ethyl]-amide]",3
